Laboratory results as given in US20230270805A1, “A COMPOSITION COMPRISING AN EXTRACT OF ALDER TREE OR THE ISOLATED COMPOUNDS THEREFROM FOR TREATING AND PREVENTING SKELETON MUSCLE-RELATED DISORDER AND THE USE THEREOF” (Sookmyung Women's University Indusutry-Academic Cooperation …, priority 2020, published 2023).

Assays:
[1] = Body weight in dexamethasone animal model of muscle loss; type: in vivo, mouse; conditions: dexamethasone 1 mg/kg s.c. alone
Experimental: (§1) Dexamethasone, a synthetic glucocorticoid, was injected subcutaneously into C57/BL6 mouse mice to establish an animal model of muscle loss and following experiment was performed.
(§2) To establish an in vivo model of muscle loss, 6 weeks-old male C57/BL6 mice (Raon Bio, 6 weeks old, weight range: 32-36 g) were acclimated for one-week, and then weighed animals determined to be healthy during the acclimatization period. The mice close to the average weight were selected using a simple random sampling method and were classified into five groups, namely, (a) a control group, (b) a muscle loss control group (treated with dexamethasone 1 mg/kg), (c) test sample group treated with inventive extract 250 mg/kg and dexamethasone, (d) test sample group treated with inventive extract 500 mg/kg and dexamethasone, and (e) positive control treated with oxymetholone (Celltrion Co. Ltd, ATC #A14AA05, 10 mg/kg) and dexamethasone.
(§3) The inventive Extract and oxymetholone were administered once to the mice daily for 4 weeks and dexamethasone was injected subcutaneously for 10 days from 10 days before the end of co-treatment of inventive extract and oxymetholone.
(§4) Both of inventive extract and oxymetholone were forcibly administered orally using zonde for oral administration after holding and fixing the skin of the animal's poll area, and dexamethasone was injected slowly subcutaneously after inserting a syringe into the dorsal skin fold of the animal held on the thumb and index finger, slightly aspirating whether it was injected normally, and confirming that no blood came out.
The body weight of every animal was measured once a week for 4 weeks from the day of inventive extract administration.

C57/BL6 mice [2] = experiment: Grip strength test in dexamethasone animal model of muscle loss; type: in vivo, mouse; conditions: dexamethasone 1 mg/kg s.c. alone
Experimental: as §1, §2, §3, §4
The grip strength of mice was determined as follows; after grabbing the animal's tail and placing it on the grid, the front foot and body were pulled at the same speed until the front foot and body were held at the grid with the front paw, and the average value was calculated after three experimental repetitions. The determination was performed on the 14th and 28th days after the administration of test sample.

C57/BL6 mice [3] = experiment: Weight of muscle mass, epididymal fat and liver in dexamethasone animal model of muscle loss; type: in vivo, mouse; conditions: dexamethasone 1 mg/kg s.c. alone, autopsy at 4 weeks
Experimental: as §1, §2, §3, §4
The mice were anesthetized with anesthetic to prevent the movement of experimental animals and sacrificed to minimize pain to dissect them. All instruments used during the experiment were sterilized and disinfected and their liver and epididymis fat were harvested.
The gastrocnemius muscle and soleus muscle of the mice were separated, washed in saline, drained, and weighed.
After autopsy at 4 weeks after administration, the weight of liver and Epididymis fat was weighed to calculate weight-to-weight to compare the relative differences between the organ's weight in the groups.

MAFbx = experiment: Western blot of MAFbx in dexamethasone-treated myotube cells (in vitro model of muscle loss); type: cell-based, mouse; conditions: myotube cells treated with dexamethasone alone; untreated cells = 1
Experimental: (§5) In order to confirm the inhibitory effect of the inventive extract obtained in Example, dexamethasone was treated to myotube cell to establish in vitro model of muscle loss and following experiment was performed according to the procedure disclosed in the previous literature (Int. J. Mol. Med. 2015, 36:29).
In particular, following experiment was performed according to the procedure disclosed in the previous literature to find out whether inventive extract takes an effect on MAFbx expression during muscle protein degradation by dexamethasone treatment since the activity of MAFbx, a muscle proteolytic enzyme, is known to induce muscle protein loss (Biomed. Pharmacother. 2017, 95:1486)
For Western blot analysis, about 3×10^4 mouse myoblast cell cells (C2C12; CRL-1772 ATCC) were incubated in 60 mm plates for 24 hours, and various concentrations of each inventive extract (0, 1, 10, 100 ng/mL) was added to the differentiation medium for 3 days to differentiate. The protein extract was obtained from the differentiated cells using by lysis buffer [25 mM Tris-HCl (pH 7.5), 100 mM NaCl, 1% NP-40, 1% sodium deoxycholate, 0.1% sodium dodecyl sulfate (SDS), and protease inhibitor cocktail, Calbiochem, Darmstadt, Germany). The protein extract (25 μg) was performed to SDS-polyacrylamide gel electorphoresis (PAGE) and transferred to polyvinylidene fluoride (PVDF) membranes. […]

MHC = experiment: Western blot of MHC in dexamethasone-treated myotube cells (in vitro model of muscle loss); type: cell-based, mouse; conditions: myotube cells treated with dexamethasone alone; untreated cells = 1
Experimental: as §5
For Western blot analysis, about 3×10^4 mouse myoblast cell cells (C2C12; CRL-1772 ATCC) were incubated in 60 mm plates for 24 hours, and various concentrations of each inventive extract (0, 1, 10, 100 ng/mL) was added to the differentiation medium for 3 days to differentiate. The protein extract was obtained from the differentiated cells using by lysis buffer [25 mM Tris-HCl (pH 7.5), 100 mM NaCl, 1% NP-40, 1% sodium deoxycholate, 0.1% sodium dodecyl sulfate (SDS), and protease inhibitor cocktail, Calbiochem, Darmstadt, Germany). The protein extract (25 μg) was performed to SDS-polyacrylamide gel electorphoresis (PAGE) and transferred to polyvinylidene fluoride (PVDF) membranes.
Primary mouse anti-MHC (sc-376157, Santa Cruz) or primary mouse anti-MAFbx (sc-166806, Santa Cruz) was conjugated to the blots at 4° C., for 12 hrs and then conjugated with anti-mouse secondary antibody conjugated to Horseradish peroxidase (goat anti-mouse IgG-HRP, sc-2005, Santa Cruz) to analyze the amount of MHC and MAFbx protein by chemiluminescence method. […]

C57/BL6 mice [4] = experiment: Treadmill test in dexamethasone animal model of muscle loss; type: in vivo, mouse; conditions: dexamethasone 1 mg/kg s.c. alone
Experimental: as §1, §2, §3, §4
The determination was performed on the 14th and 28th days after the administration of test sample.

SMILES: C[C@@H]1C[C@H]2[C@@H]3CCC4=CC(=O)C=C[C@]4(C)[C@@]3(F)[C@@H](O)C[C@]2(C)[C@@]1(O)C(=O)CO [Dexa, dexamethasone]
- body weight ([1]; 0 week): 22.33 ± 1.11 gram
- body weight ([1]; 1 week): 22.84 ± 1.54 gram
- body weight ([1]; 2 weeks): 23.46 ± 1.60 gram
- body weight ([1]; 3 weeks): 23.57 ± 1.81 gram
- body weight ([1]; 4 weeks): 23.57 ± 1.76^ab gram
- grip strength (C57/BL6 mice [2]; 2 weeks): 1.05 ± 0.08 N
- grip strength (C57/BL6 mice [2]; 4 weeks): 0.94 ± 0.12^b N
- absolute weight, epididymal fat (C57/BL6 mice [3]): 0.51 ± 0.10 gram
- absolute weight, calf muscle (C57/BL6 mice [3]; gastrocnemius): 0.242 ± 0.014 gram
- absolute weight, fluke muscle (C57/BL6 mice [3]; soleus): 0.014 ± 0.002^c gram
- MAFbx expression (MAFbx): 1.9 fold
- MHC expression (MHC): 0.7 fold
- motility (treadmill) (C57/BL6 mice [4]; 2 weeks): 798.85 ± 14.33 meter
- motility (treadmill) (C57/BL6 mice [4]; 4 weeks): 745.73 ± 30.01 meter
